This note sets out measurements from PMC8037142, “Design, Synthesis, Molecular Modeling and Antitumor Evaluation of Novel Indolyl-Pyrimidine Derivatives with EGFR Inhibitory Activity” (Molecules, 2021).

Like-named read-outs stand apart in the source and are kept apart here.

A word on the IC50: it is the concentration that inhibits the measured activity by half. As a reminder, the melting point is the temperature, or range, at which the solid turns liquid.

Series [1] has as its system MCF-7 breast cancer cell line. In words: Resazurin Cell Growth Inhibition Assay, MCF-7. To be noted: Homo sapiens, MCF7; MCF-7, 48 h, mean ± SD of three experiments; read-out: Cytotoxic Activity IC50. In kind it is cell-based. On the procedure: (§1) Compounds 1–4 were assessed for their in vitro cytotoxic activity against three human cell lines i.e., breast (MCF-7), liver (HepG2), colon (HCT-116) cancer cell lines as well as in lung fibroblast (WI38) normal cell line using the Resazurin Cell Growth Inhibition Assay. Both erlotinib and 5-Fluorouracil (5-FU) were used as reference drugs. Concentrations of the tested compounds that give about 50% inhibition of cell viability (IC50, mean of triplicate) in µM were obtained. […] However, if replaced by a hydrazone substituent, a more prominent efficacy toward the three cancer cell lines was observed. […] The most promising in vitro antiproliferative activity was obtained when the hydrazone is bearing electron-withdrawal groups i.e., 4-chlorobenzylidene moiety (compound 3f), 3,4-dichloro benzylidene moiety (compound 3g) and 4-fluorobenzylidene moiety (compound 3h) compared to the standard treatment (Table 1, Figure 5). The inhibitory activity of compounds was reduced when the hydrazone group is bearing electron donating groups i.e., 4-methyl group (compound 3b), 2-methoxy group (compound 3c), 4-hydroxy (compound 3d) and 4-dimethylamino group (compound 3e). The trend of antiproliferative activity of compounds […] against all tested cell lines has the following descending order: (3g > 3h >3f >3a >3b > 3c > 3d > 3e). […]. […] This is mainly because this compound has the highest lipophilicity as well as less electron density as it has 2-Cl atoms (more electronegativity) on the indolyl pyrimidine-thiazolidinone.
(§2) In vitro cytotoxicity was measured according to the Resazurin Cell Growth Inhibition Assay Alamar Blue or Resazurin (Promega, Mannheim, Germany) reduction assay was used to assess the cytotoxicity of the studied samples. The assay tests cellular viability and mitochondrial function. Briefly, adherent cells were grown in tissue culture flasks, and then harvested by treating the flasks with 0.025% trypsin and 0.25 mM EDTA for 5 min. Once detached, cells were washed, counted, and an aliquot (5 × 10^3 cells) were placed in each well of a 96-well cell culture plate in a total volume of […]. Cells were allowed to attach overnight and then treated with samples. […]. Each assay was performed as triplicates. […] […]. The viability was compared based on a comparison with untreated cells. IC50 (on cancer cells) were the concentration of sample required to inhibit 50% of the cell proliferation and were calculated from a calibration curve by a linear regression using Microsoft Excel.
A general note: Resazurin is reduced to fluorescent resorufin, in cell work by metabolically active cells.

Series [2] deals with HCT-116 colon cancer cell line. The experiment in a line: Resazurin Cell Growth Inhibition Assay, HCT-116. In kind it is cell-based, human. On the procedure:
as §1, §2

In series [3] the test system is HepG2 liver cancer cell line. In words: Resazurin Cell Growth Inhibition Assay, HepG2. In kind it is cell-based, human. On the procedure: as §1, §2
Series [4] in a line: Resazurin Cell Growth Inhibition Assay, WI38 normal cells. To be noted: human, WI38 normal lung fibroblast cells, WI-38 normal cells, mean ± SD of three experiments, read-out: Cytotoxic Activity IC50. In kind it is cell-based. The method, then: as §1, §2
In series [5] the test system is Ehrlich ascites carcinoma (EAC). In words: In vivo antitumor assay in EAC tumor bearing mice. The note with it: 0.5 mg/mouse for nine days. On the procedure: The antitumor activity of these compounds was assessed by the change in tumor volume, viable cell count, mean survival time (MST) and % increase in lifespan (% ILS) of the EAC tumor bearing mice and 5-FU (standard treatment). The mean survival time (MST) and % increase in lifespan (% ILS) of EAC tumor bearing mice, as well as the influence of these compounds on viable tumor cells and the tumor volume, are shown in Table 2. The hematological profile of these mice was also assessed in comparison with the standard treatment with 5-FU, and no obvious effect on RBCs or WBCs was observed. […] MST = (day of first death + day of last death)/2 %ILS = [(MST of treated group/MST of control group) − 1] × 100 […]
In vivo antitumor evaluation was carried out as previously reported (see Supplementary Materials).
2. Biological Evaluation Details: a) In vivo antitumor assay: Materials . Adult Swiss male mice (weighing 20 -25 g) were obtained from the Department of Pharmacology, Faculty of Pharmacy, Mansoura University, Egypt.
They were kept in microlon boxes at temperature 25 ± 2 °C with a regular 12 hrs light/dark cycle. In addition, food and water were available. EAC cells (procured from NCI, Cairo, Egypt) were harvested and prepared, then their total number was counted.
Procedure. 7 Groups of mice ( n = 4) were used.
Group 1: Negative control (no EAC cells) - received normal saline.
Group 2: Positive control (EAC cells) - received normal saline.
Group 3: EAC cells - treated with compound 3g (0.5 mg/mouse).
Group 4: EAC cells - treated with compound 4f (0.5 mg/mouse).
Group 5: EAC cells - treated with compound 4g (0.5 mg/mouse).
Group 6: EAC cells - treated with compound 4h (0.5 mg/mouse).
Group 7: EAC cells - treated with 5-fluorouracil (0.5 mg/mouse).
2 x 10^6 EAC cells were injected intraperitoneally in each mouse (groups 2-7). After […]
for nine days, then blood samples were withdrawn for assessment of blood count.
Determination of tumor volume
The ascetic fluid was gathered from the peritoneal cavity and its volume was determined. It was then centrifuged, and the packed tumor cell volume was measured.
Determination of viable tumor cell count
100 μL Sample of EAC cells (from three mice per group) was utilized and diluted twenty times with saline. Cells were stained with trypan blue, viable cells are not stained, while the dead ones are stained. The number of viable cells was calculated.

Where [6] appears, read: Homo sapiens, HCT-116, 48 h, mean ± SD of three experiments, read-out: Cytotoxic Activity IC50.
The mark [7] stands for this setting: Homo sapiens, HepG2, 48 h, mean ± SD of three experiments, read-out: Cytotoxic Activity IC50.

`CC1=C(C(=O)NN2C(=O)CSC2c2ccc(N(C)C)cc2)C(c2c[nH]c3ccccc23)NC(=S)N1` (stereo not drawn) [Compound 4e, N-(2-(4-(dimethylamino)phenyl)-4-oxothiazolidin-3-yl)-4-(1H-indol-3-yl)-6-methyl-2-thioxo-1,2,3,4-tetrahydropyrimidine-5-carboxamide] returned a melting point of 170 to 172 °C. Further, the IC50 in series [1] was found to be 14.2 ± 0.74 µM. Besides, in series [2] (setting [6]), the IC50 stood at 13.7 ± 0.55 µM. The IC50 in series [3] (setting [7]) is 18.6 ± 0.94 µM. Moreover, the concentration for half-maximal inhibition (IC50) at 48 h in series [4] came out at 20.2 ± 5.52 µM.
On to `CC1=C(C(=O)N/N=C/c2ccc(F)cc2)C(c2c[nH]c3ccccc23)NC(=S)N1` (stereo not drawn) [Compound 3h], for which the IC50 came to 10.2 ± 2.01 µM in series [1], 10.1 ± 2.45 µM in series [2] (setting [6]) and 10.4 ± 2.08 µM in series [3] (setting [7]). For the same compound, in series [4], the IC50 at 48 h was 28.1 ± 4.22 µM.
For the compound `CC1=C(C(=O)N/N=C/c2ccc(Cl)cc2)C(c2c[nH]c3ccccc23)NC(=S)N1` (stereo not drawn) [Compound 3f], the IC50 worked out at 10.7 ± 2.3 µM in series [1], 10.2 ± 1.18 µM in series [2] (setting [6]) and 10.6 ± 2.32 µM in series [3] (setting [7]). Besides, the IC50 at 48 h in series [4] stood at 29.8 ± 1.51 µM.
Take `C#Cc1cccc(Nc2ncnc3cc(OCCOC)c(OCCOC)cc23)c1` [erlotinib, reference compound]: the IC50 in series [1] is 6.65 ± 0.82 µM; in series [2] (setting [6]), 7.49 ± 0.65 µM. Moreover, the IC50 at 48 h in series [4] stood at 22.5 ± 0.65 µM.
With `CC1=C(C(=O)N/N=C/c2ccccc2O)C(c2c[nH]c3ccccc23)NC(=S)N1` (stereo not drawn) [Compound 3d], the IC50 is 19.2 ± 2.35 µM in series [1], 16.6 ± 1.27 µM in series [2] (setting [6]) and 20.2 ± 2.33 µM in series [3] (setting [7]). For the same compound, the concentration for half-maximal inhibition (IC50) at 48 h in series [4] was 35.3 ± 2.42 µM.
The compound `CC1=C(C(=O)NN2C(=O)CSC2c2ccc(C)cc2)C(c2c[nH]c3ccccc23)NC(=S)N1` (stereo not drawn) [Compound 4b, 4-(1H-indol-3-yl)-6-methyl-N-(4-oxo-2-(p-tolyl)thiazolidin-3-yl)-2-thioxo-1,2,3,4-tetrahydropyrimidine-5-carboxamide] gave a melting point of 220 to 222 °C. In addition, the IC50 in series [1] came out at 11.6 ± 3.22 µM. In series [2] (setting [6]), the concentration for half-maximal inhibition (IC50) was found to be 12.6 ± 1.05 µM. Also, the IC50 in series [3] (setting [7]) was 18 ± 3.2 µM. Further, in series [4], the IC50 at 48 h came out at 39.8 ± 4.51 µM.
Turning to `COc1ccccc1C1SCC(=O)N1NC(=O)C1=C(C)NC(=S)NC1c1c[nH]c2ccccc12` (stereo not drawn) [Compound 4c, 4-(1H-indol-3-yl)-N-(2-(2-methoxyphenyl)-4-oxothiazolidin-3-yl)-6-methyl-2-thioxo-1,2,3,4-tetrahydropyrimidine-5-carboxamide], the melting point is 200 to 202 °C. Besides, in series [1], the 50% inhibitory concentration (IC50) stood at 12.3 ± 4.08 µM. Moreover, the IC50 in series [2] (setting [6]) came out at 13.2 ± 1.03 µM. Further, the IC50 in series [3] (setting [7]) is 18.5 ± 4.38 µM. Further, in series [4], the IC50 at 48 h turned out to be 29.5 ± 4.02 µM.
On to `COc1ccccc1/C=N/NC(=O)C1=C(C)NC(=S)NC1c1c[nH]c2ccccc12` (stereo not drawn) [Compound 3c, 4-(1H-indol-3-yl)-6-methyl-2-thioxo-1,2,3,4-tetrahydropyrimidine-5-carboxylic acid (2-methoy-benzylidene)-hydrazide], for which the melting point fell in the range of 220 to 222 °C. The IC50 in series [1] was determined as 18.9 ± 2 µM. The IC50 in series [2] (setting [6]) is 16.3 ± 4.16 µM. Also, the IC50 in series [3] (setting [7]) stood at 19.9 ± 2.06 µM. Also, the IC50 at 48 h in series [4] turned out to be 37.4 ± 1.49 µM.
`CC1=C(C(=O)N/N=C/c2ccccc2)C(c2c[nH]c3ccccc23)NC(=S)N1` (stereo not drawn) [Compound 3a]: the IC50 was found to be 17 ± 1.8 µM in series [1], 15.2 ± 2.32 µM in series [2] (setting [6]) and 19.2 ± 1.5 µM in series [3] (setting [7]). Besides, the half-maximal inhibitory concentration (IC50) at 48 h in series [4] came out at 38.2 ± 2.1 µM.
The compound `CC1=C(C(=O)NN2C(=O)CSC2c2ccccc2O)C(c2c[nH]c3ccccc23)NC(=S)N1` (stereo not drawn) [Compound 4d, N-(2-(2-hydroxyphenyl)-4-oxothiazolidin-3-yl)-4-(1H-indol-3-yl)-6-methyl-2-thioxo-1,2,3,4-tetrahydropyrimidine-5-carboxamide] had a melting point of 180 to 182 °C. Also, in series [1], the IC50 was 12.6 ± 1.7 µM. Also, the IC50 in series [2] (setting [6]) was determined as 13.6 ± 1.09 µM. Also, in series [3] (setting [7]), the 50% inhibitory concentration (IC50) is 18.7 ± 1.2 µM. The IC50 at 48 h in series [4] came out at 29.9 ± 3.63 µM.
In the case of `CC1=C(C(=O)NN2C(=O)CSC2c2ccccc2)C(c2c[nH]c3ccccc23)NC(=S)N1` (stereo not drawn) [Compound 4a, 4-(1H-indol-3-yl)-6-methyl-N-(4-oxo-2-phenylthiazolidin-3-yl)-2-thioxo-1,2,3,4-tetrahydropyrimidine-5-carboxamide], the melting point lay in the range of 270 to 272 °C. The IC50 in series [1] turned out to be 11.2 ± 4.31 µM. Further, in series [2] (setting [6]), the IC50 amounted to 12.3 ± 2.17 µM. The half-maximal inhibitory concentration (IC50) in series [3] (setting [7]) came to 17 ± 4.3 µM. The IC50 at 48 h in series [4] stood at 38 ± 5.51 µM.
For `O=c1[nH]cc(F)c(=O)[nH]1` [Compound 5-FU, 5-Fluorouracil, reference compound], the half-inhibitory concentration (IC50) stood at 5.38 ± 0.24 µM in series [1]; 7.88 ± 0.2 µM in series [2] (Homo sapiens; HCT-116, 48 h, mean ± SD of three experiments; read-out: Cytotoxic Activity IC50); 5.34 ± 0.4 µM in series [3] (Homo sapiens; HepG2, 48 h, mean ± SD of three experiments; read-out: Cytotoxic Activity IC50). Besides, the IC50 at 48 h in series [4] came out at 5.7 ± 1.5 µM. Moreover, in series [5] (ascitic fluid), the “Tumor Volume” value came out at 0.80 mL. The “MST (mean survival time)” value in series [5] (mean of two experiments) was found to be 53.0 days. Moreover, in series [5] (trypan blue), the “Viable Tumor Cell Count” value is 19.07 10^6/mL.
`CC1=C(C(=O)NN=Cc2ccc(N(C)C)cc2)C(c2c[nH]c3ccccc23)NC(=S)N1` (stereo not drawn) [Compound 3e, 4-(1H-indol-3-yl)-6-methyl-2-thioxo-1,2,3,4-tetrahydropyrimidine-5-carboxylic acid (4-dimethylamino-benzylidene)-hydrazide] registered a melting point of 180 to 182 °C. Also, the IC50 in series [1] was 19.8 ± 2.7 µM. For the same compound, the 50% inhibitory concentration (IC50) in series [2] (setting [6]) worked out at 16.2 ± 1.15 µM. Moreover, in series [3] (setting [7]), the IC50 was found to be 20.4 ± 2.3 µM. The IC50 at 48 h in series [4] is 40 ± 2.31 µM.
`CC1=C(C(=O)NN=Cc2ccc(C)cc2)C(c2c[nH]c3ccccc23)NC(=S)N1` (stereo not drawn) [Compound 3b, 4-(1H-indol-3-yl)-6-methyl-2-thioxo-1,2,3,4-tetrahydropyrimidine-5-carboxylic acid (4-methyl-benzylidene)-hydrazide] registered a melting point of 240 to 242 °C. The IC50 in series [1] is 18.5 ± 2.11 µM. Further, the IC50 in series [2] (setting [6]) amounted to 15.6 ± 3.15 µM. Besides, the IC50 in series [3] (setting [7]) came to 19.4 ± 2.19 µM. In addition, in series [4], the IC50 at 48 h is 39.1 ± 1.3 µM.
